From ChEMBL document CHEMBL1201862, “PubChem BioAssay data set” (2004)
The source made the active and inactive calls.

Columns and labels:
[1] = HEp-2 cell cytotoxicity, dose response, cytotoxicity control for RSV inhibitor project, HTS (AID 2410); type: functional; conditions: human respiratory syncytial virus
[2] = Luminescence Cell-Based Dose Retest to Confirm Inhibitors of Cancer Stem Cells. [Related pubchem assays (depositor defined):AID2717, AID2721]; type: functional; conditions: Homo sapiens
H9c2 = assay: cells; type: functional, cell-based; conditions: Rattus norvegicus, H9c2, Myocardium
INS1 = assay: beta cell apoptosis inhibitors, cytokine rescue, dose response, luminescence, retest (AID 449756); type: functional, cell-based; conditions: Rattus norvegicus, INS1;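 also: cell death triggered by IL-1 beta plus TNF-alpha plus IFN-gamma mixture; protective hits raise ATP signal compared with cytokine alone wells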
Large T antigen = Large T antigen (Simian virus 40, UniProt P03070); type: functional, Betapolyomavirus macacae;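 also: Confirmatory-stage PubChem screen for compounds that inhibit SV40 T antigen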
Chain of Large T antigen (P03070 whole entry): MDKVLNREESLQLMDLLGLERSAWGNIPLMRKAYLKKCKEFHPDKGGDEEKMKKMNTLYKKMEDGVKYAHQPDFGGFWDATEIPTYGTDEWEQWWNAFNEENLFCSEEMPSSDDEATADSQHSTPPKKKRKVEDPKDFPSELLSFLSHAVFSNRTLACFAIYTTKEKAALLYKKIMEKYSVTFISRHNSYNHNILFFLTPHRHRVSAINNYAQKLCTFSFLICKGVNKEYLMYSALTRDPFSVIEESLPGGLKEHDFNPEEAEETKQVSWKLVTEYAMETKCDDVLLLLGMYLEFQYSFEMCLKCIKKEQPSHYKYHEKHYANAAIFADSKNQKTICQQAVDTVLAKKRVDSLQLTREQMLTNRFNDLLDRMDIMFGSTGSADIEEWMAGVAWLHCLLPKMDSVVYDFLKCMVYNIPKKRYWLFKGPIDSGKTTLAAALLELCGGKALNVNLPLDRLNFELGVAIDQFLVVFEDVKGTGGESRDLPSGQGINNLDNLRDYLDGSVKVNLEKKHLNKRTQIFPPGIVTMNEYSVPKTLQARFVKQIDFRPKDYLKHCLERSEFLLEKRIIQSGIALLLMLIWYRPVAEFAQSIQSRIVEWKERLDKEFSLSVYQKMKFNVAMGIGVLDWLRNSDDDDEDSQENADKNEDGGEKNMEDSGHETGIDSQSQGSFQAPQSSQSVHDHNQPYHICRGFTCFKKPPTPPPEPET

[3] = target: T1, Replicative DNA helicase DnaB (Mycobacterium tuberculosis, UniProt P9WMR3); assay: DnaB intein splicing inhibitors, dose response, biochemical, cell-free fluorescence (AID 449749); type: functional
T1 sequence (P9WMR3 whole entry): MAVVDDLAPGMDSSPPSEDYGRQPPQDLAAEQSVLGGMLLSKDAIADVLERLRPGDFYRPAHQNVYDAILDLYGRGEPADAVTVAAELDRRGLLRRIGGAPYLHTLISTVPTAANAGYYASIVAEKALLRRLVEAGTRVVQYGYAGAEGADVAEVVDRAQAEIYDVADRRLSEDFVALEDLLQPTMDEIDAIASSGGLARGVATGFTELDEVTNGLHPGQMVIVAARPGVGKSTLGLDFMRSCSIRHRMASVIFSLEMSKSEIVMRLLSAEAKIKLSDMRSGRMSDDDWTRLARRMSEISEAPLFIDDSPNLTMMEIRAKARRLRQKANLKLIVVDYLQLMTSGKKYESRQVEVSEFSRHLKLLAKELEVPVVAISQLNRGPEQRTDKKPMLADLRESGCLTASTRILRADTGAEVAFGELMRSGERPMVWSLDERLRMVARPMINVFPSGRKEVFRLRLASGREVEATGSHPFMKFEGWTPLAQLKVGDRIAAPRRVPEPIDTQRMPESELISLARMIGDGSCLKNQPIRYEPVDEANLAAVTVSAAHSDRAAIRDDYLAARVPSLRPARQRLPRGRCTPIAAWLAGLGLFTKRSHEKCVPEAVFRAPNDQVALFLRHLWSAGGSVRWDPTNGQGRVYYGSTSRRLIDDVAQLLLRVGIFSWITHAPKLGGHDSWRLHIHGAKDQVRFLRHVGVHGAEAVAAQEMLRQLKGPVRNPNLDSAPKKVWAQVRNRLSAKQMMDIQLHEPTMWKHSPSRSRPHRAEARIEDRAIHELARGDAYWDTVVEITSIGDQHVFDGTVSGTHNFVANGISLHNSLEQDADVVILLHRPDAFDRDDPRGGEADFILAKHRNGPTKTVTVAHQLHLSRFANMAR

Protein RecA = target: T2, Protein RecA (Mycobacterium tuberculosis, UniProt P9WHJ3); assay: Fluorescence Cell-Free Homogeneous Dose Retest to Identify Inhibitors of RecA-Intein Splicing Activity. [Related pubchem assays (depositor defined):AID2097, AID2223, AID489010, AID492950]; type: functional
T2 sequence (P9WHJ3 whole entry): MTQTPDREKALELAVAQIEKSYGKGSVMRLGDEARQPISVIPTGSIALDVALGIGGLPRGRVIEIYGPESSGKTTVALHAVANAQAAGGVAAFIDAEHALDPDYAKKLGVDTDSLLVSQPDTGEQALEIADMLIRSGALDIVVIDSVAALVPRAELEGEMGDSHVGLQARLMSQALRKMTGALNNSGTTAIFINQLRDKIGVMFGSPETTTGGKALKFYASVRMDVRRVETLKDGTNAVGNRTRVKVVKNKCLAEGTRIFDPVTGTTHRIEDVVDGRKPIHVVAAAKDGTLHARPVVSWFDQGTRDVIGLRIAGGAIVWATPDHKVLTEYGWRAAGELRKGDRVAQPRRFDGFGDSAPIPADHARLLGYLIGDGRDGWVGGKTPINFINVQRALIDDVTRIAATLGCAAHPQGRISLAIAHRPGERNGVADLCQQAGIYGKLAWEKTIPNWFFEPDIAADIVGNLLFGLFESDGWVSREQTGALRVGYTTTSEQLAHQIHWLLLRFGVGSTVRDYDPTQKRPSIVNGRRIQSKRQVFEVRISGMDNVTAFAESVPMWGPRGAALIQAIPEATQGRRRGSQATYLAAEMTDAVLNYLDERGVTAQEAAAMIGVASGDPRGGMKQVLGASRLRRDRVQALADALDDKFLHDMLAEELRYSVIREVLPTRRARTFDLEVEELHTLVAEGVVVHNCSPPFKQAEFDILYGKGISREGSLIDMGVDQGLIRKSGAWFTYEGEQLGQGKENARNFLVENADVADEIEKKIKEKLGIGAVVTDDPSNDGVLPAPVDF

[4] = target: T3, Corticotropin-releasing factor receptor 2/Corticotropin-releasing factor-binding protein (Homo sapiens, UniProt P24387+Q13324); assay: activators of CRF receptor 2 with binding protein – uHTS hits, confirmation (AID 602473); type: functional; conditions: read-out: EC50_Mean
T3 sequence (Q13324 whole entry): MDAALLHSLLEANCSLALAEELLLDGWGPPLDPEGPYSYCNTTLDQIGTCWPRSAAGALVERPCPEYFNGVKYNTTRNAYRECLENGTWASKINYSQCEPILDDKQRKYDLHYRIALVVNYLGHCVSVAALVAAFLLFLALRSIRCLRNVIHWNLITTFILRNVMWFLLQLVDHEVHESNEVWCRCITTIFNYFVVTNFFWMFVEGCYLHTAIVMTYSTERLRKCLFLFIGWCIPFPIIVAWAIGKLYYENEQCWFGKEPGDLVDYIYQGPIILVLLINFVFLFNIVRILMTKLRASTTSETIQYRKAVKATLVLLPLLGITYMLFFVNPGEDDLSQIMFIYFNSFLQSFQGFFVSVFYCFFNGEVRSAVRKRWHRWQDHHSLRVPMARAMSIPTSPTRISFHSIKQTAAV
T3 sequence (P24387 whole entry): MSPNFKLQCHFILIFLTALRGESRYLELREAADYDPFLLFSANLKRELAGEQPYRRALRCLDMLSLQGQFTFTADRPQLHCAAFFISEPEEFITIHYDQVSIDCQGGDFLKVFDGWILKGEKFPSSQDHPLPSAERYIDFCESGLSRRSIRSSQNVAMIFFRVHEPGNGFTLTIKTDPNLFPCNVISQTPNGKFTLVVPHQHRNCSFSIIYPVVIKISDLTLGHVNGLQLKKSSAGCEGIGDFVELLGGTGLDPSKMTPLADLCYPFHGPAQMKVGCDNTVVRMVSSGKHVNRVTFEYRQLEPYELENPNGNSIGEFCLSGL

[5] = target: T3, Corticotropin-releasing factor receptor 2/Corticotropin-releasing factor-binding protein; assay: Dose Response confirmation of uHTS hits for small molecule antagonists of the CRF-binding protein and CRF-R2 receptor complex.; type: functional; conditions: read-out: IC50_Mean
[6] = cytotoxicity toward NIH3T3 fibroblasts, dose response, counter-screen, cell-based, ATP luminescence, mouse fibroblasts (AID 2010); type: functional;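 also: cells exposed to compound for about 90 hours before reading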
[7] = inhibitors of intracellular T. cruzi replication, confirmation, NIH3T3 host cells, beta-gal luminescence (AID 2044); type: functional, cell-based;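 also: intracellular parasites grown in NIH/3T3 mouse fibroblasts as host cells; luminescent beta-galactosidase reporter signal from transgenic T. cruzi replicating inside host cells; inhibitors lower the luminescence signal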
Streptokinase A = target: T4, Streptokinase A (Streptococcus pyogenes serotype M1, UniProt P10520); assay: S. pyogenes streptokinase expression inhibitors, potency, dose response, plasminogen activation absorbance, OD405 (AID 1914); type: functional, Streptococcus pyogenes M1 GAS;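 also: secreted streptokinase activity via plasminogen activation per viability signal from cell pellet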
T4 sequence (P10520 whole entry): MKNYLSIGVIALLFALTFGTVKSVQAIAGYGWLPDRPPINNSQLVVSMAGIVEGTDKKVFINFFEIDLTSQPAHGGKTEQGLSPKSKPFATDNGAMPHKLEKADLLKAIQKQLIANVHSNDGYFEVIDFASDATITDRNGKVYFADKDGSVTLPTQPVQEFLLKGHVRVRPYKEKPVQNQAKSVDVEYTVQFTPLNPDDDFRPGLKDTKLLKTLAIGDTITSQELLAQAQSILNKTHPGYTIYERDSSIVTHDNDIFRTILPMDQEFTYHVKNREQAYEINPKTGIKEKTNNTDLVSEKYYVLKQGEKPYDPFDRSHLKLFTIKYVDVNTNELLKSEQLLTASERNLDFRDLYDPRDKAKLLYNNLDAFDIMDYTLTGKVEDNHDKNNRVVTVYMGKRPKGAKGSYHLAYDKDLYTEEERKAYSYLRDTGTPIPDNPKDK

[8] = growth suppression of PTEN-null colon cells, dose response, cell-based, HCT116 PTEN knockout (AID 1047); type: functional;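 also: HCT116 colon tumor cells with PTEN knocked out; cells exposed to compound for 60 hours before readout; potency for loss of cell viability measured by luminescence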
[9] = growth suppression of beta-catenin-knockout colon cells, dose response, cell-based, HCT116, human colon tumor (AID 1045); type: functional;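 also: HCT116 colon tumor cells with beta catenin knocked out; cells exposed to compound for 60 hours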
Streptococcus = assay: Group A Streptococcus viability loss, dose response, counter-screen for streptokinase expression inhibitor project, luminescence, BacTiterGlo (AID 1915); type: functional, organism-based;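 also: potency for reduction of bacterial viability or growth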
[10] = test system: Streptococcus sp. 'group A'; assay: growth inhibition of control SK(-) GAS strain, dose response, counter-screen for streptokinase expression inhibitor project, luminescence, kanamycin, BacTiterGlo, confirmation (AID 1900); type: functional, organism-based
[11] = target: T5, Rac GTPase-activating protein 1 (Homo sapiens, UniProt Q9H0H5); assay: MgcRacGAP GTPase-activating activity inhibitors, confirmation, biochemical, ADP Hunter fluorescence, primary and confirmatory (AID 624330); type: functional
T5 sequence (Q9H0H5 whole entry): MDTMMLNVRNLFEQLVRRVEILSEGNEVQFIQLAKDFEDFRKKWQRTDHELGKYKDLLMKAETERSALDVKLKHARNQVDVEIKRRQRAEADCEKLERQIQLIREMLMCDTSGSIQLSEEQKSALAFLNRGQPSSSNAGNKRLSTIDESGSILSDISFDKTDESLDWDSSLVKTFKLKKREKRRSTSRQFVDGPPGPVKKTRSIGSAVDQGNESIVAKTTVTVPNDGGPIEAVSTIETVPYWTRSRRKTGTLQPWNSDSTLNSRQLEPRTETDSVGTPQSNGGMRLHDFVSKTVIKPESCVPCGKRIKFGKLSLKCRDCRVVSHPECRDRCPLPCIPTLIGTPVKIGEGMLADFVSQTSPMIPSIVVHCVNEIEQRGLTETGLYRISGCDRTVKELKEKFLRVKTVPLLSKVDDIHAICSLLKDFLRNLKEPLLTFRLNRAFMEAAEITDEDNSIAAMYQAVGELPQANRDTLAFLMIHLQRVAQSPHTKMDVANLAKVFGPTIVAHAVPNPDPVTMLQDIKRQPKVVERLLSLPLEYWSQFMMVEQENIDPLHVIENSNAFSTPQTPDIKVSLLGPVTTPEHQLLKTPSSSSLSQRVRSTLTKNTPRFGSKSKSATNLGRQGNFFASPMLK

## O=C(CN(c1cccc(C(F)(F)F)c1)S(=O)(=O)c1ccc(Cl)c([N+](=O)[O-])c1)NCc1ccccc1Cl
[1]
  CC50: > 50 µM (active)
[2]
  AC50: 1.72 µM (active)

## CCN1C(=O)/C(=C/c2nc3ccccc3c(=O)n2-c2ccccc2)c2ccccc21
H9c2
  IC50: > 79 µM (inactive)

## COc1ccc(-c2c([C@H]3[C@H]4C=CC[C@@H](C)[C@@H]4C(=O)N3Cc3ccccc3)ccc3ccccc23)cc1
INS1
  AC50: 9.01 µM (active)

## CCOc1cc(/C=C2/NC(=O)N(CC(=O)OC)C2=O)ccc1O
Large T antigen
  IC50: 12.5 µM (active)

## Cc1cc(F)ccc1S(=O)(=O)N(C(=O)c1ccncc1)c1ccc(OC(=O)c2ccncc2)cc1
[3]
  AC50: 4.53 µM (active)
Protein RecA
  EC50: 14.1 µM (active)
Large T antigen
  IC50: 50.7 µM (active)

## CCOC(=O)Cc1nnc(O)c2ccccc12
H9c2
  IC50: 11.1 µM (active)

## O=C(c1cccc(-c2ccc(O)cc2)c1)N1CCOCC1
Large T antigen
  IC50: 10.2 µM (active)

## Nc1nn(S(=O)(=O)c2ccccc2)cc1-c1ccc([N+](=O)[O-])cc1
[4]
  EC50: > 53 µM (inactive)
[5]
  IC50: > 47.1 µM (inactive)

## CCOc1cccc(Nc2cc3n(c(=O)n2)CCc2cc(OC)c(OC)cc2-3)c1
H9c2
  IC50: 12.8 µM (active)

## O=C(Nc1ccc(Cl)c(Cl)c1)Nc1nnc(CC2=CCCCC2)s1
INS1
  AC50: 3.51 µM (active)

## CCOc1ccc2nc(O)c(CN(CCO)C3(c4nnnn4C4CCCCC4)CCCCC3)cc2c1
H9c2
  IC50: 26.4 µM (active)

## COc1ccc2nc(O)c(CN(Cc3ccco3)C(c3nnnn3Cc3ccccc3)C(C)C)cc2c1 (centres undefined)
[6]
  EC50: > 60 µM (not active)
H9c2
  IC50: > 79 µM (inactive)
[7]
  EC50: > 60 µM (not active)

## CCS(=O)(=O)Nc1ccc(-c2cc(-c3ccccc3)c3cc(C)ccc3n2)cc1
Streptokinase A
  EC50: > 150 µM (not active)
[8]
  EC50: 27.6 µM (active)
[9]
  EC50: 24.1 µM (active)
[2]
  AC50: 3.42 µM (active)
Streptococcus
  EC50: 7.65 µM (active)
[10]
  EC50: 7.31 µM (active)

## CCc1c(C)nc(SCC(=O)N2CCN(c3ccccc3OC)CC2)nc1O
[4]
  EC50: > 53 µM (inactive)
[5]
  IC50: > 47.1 µM (inactive)

## O=C1CCSc2c1ccc1ccccc21
[4]
  EC50: > 53 µM (inactive)
[5]
  IC50: > 47.1 µM (inactive)

## CC(NC(=O)Cn1nc(C(=O)O)c2ccccc2c1=O)c1ccccc1 (centres undefined)
H9c2
  IC50: 18.3 µM (active)

## O=C(Nc1ccccc1)Nc1ccc(O)c2ccccc12
[2]
  AC50: 2.56 µM (active)
[3]
  AC50: 9.08 µM (active)
Protein RecA
  EC50: 0.762 µM (active)

## COc1ccc(-c2cc(C(=O)NC3CCCC3)c3ccccc3n2)cc1OC
[4]
  EC50: > 53 µM (inactive)
[5]
  IC50: > 47.1 µM (inactive)

## C/C(=N\CCCn1ccnc1)c1c(-c2ccccc2)[nH]n(-c2nc3ccccc3s2)c1=O
H9c2
  IC50: > 79 µM (inactive)

## COc1cc(/C=N\NC(=O)c2c(C)nc3cc(C)ccn23)ccc1O
[11]
  IC50: 33.3 µM (active)
Large T antigen
  IC50: 13.4 µM (active)

## Cc1nc(Cl)cc(N/N=C/c2ccc(O)cc2)n1
Large T antigen
  IC50: 8.13 µM (active)

## C/C(CC(=O)Nc1ccc(N(C)C)cc1)=N\NC(=O)c1ccc([N+](=O)[O-])cc1Cl
[11]
  IC50: 66.7 µM (active)
Large T antigen
  IC50: 9.88 µM (active)

## CCOc1cc(/C=N\NC(=O)CC(=O)NCCc2ccccc2)ccc1O
[11]
  IC50: 46.5 µM (active)
Large T antigen
  IC50: 7.94 µM (active)

## C/C(=N/NC(=O)CSc1nc2ccccc2n1C)c1ccc(O)cc1
[11]
  IC50: 138 µM (active)
Large T antigen
  IC50: 30.9 µM (active)
